Measured values as given in publication doi:10.1101/2023.02.27.530254, “Large library docking for cannabinoid-1 receptor agonists with reduced side effects” (bioRxiv, 2024).
Values joined by “and” are separate entries in the source; they are usually repeats but may differ in a detail not shown here. Equal values may be shown once. Read-outs that look alike come from different tables or passages of the source.

Tests used:
[1] = Pharmacokinetics in plasma, brain and CSF; format: in vivo, CD-1 mice; conditions: 0.2 mg/kg i.p., mice; for half-life: in vivo
Experimental: The batches of working formulations were prepared 5–10 minutes prior to the in vivo study. […] There was also a one mouse control group. All animals were fasted for 4 h before dosing. Mice were injected i.p. with 2,2,2-tribromoethanol at the dose of 150 mg/kg prior to drawing CSF and blood. Blood collection was performed from the orbital sinus in microtainers containing K3EDTA. CSF was collected under a stereomicroscope from cisterna magna using 1 mL syringes. Animals were sacrificed by cervical dislocation after the blood samples collection. After this, right lobe brain samples were collected and weighted. All samples were immediately processed, flash-frozen and stored at −70°C until subsequent analysis.
Plasma samples (40 μL) were mixed with 200 μL of internal standard solution. After mixing by pipetting and centrifuging for 4 min at 6,000 rpm, supernatant was injected into LC-MS/MS system. […] After this, the samples were centrifuged for 4 min at 14,000 rpm, and supernatant was injected into LC-MS/MS system. CSF samples (4 μL) were mixed with 100 μL of IS(80) solution. After mixing by pipetting and centrifuging for 4 min at 6,000 rpm, 1–6 μL of each supernatant was injected into LC-MS/MS system.
Analyses of plasma, brain and CSF samples were conducted at Enamine/Bienta. The concentrations of compounds in samples were determined using high performance liquid chromatography/tandem mass spectrometry (HPLC-MS/MS) method. Data acquisition and system control was performed using Analyst 1.6.3 software (AB Sciex, Canada). The concentrations of the test compound below the lower limit of quantitation (LLOQ: 2–5 ng/mL for plasma and CSF, 1–5 ng/g for brain) were designated as zero. The pharmacokinetic data analysis was performed using noncompartmental, bolus injection or extravascular input analysis models in WinNonlin 5.2 (PharSight). Data below LLOQ were presented as missing to improve validity of T½ calculations.

C56BL/6 mice [2] = test: CFA-induced inflammatory pain model, Hargreaves test; format: in vivo, mouse; conditions: 0.2 mg/kg i.p.
Experimental: (§1) Hindpaw mechanical thresholds were determined with von Frey filaments using the up-down method. […] Each training has three sessions of five min. each.
The CFA model of chronic inflammation was induced as described previously. Briefly, CFA (Sigma) was diluted 1:1 with saline and vortexed for 30 min. When fully suspended, we injected 20 μL of CFA into one hindpaw. Heat thresholds were measured before the injection (baseline) and 3 days after the injection using the Hargreaves test.

hCB1 [3] = target: T1, hCB1 (Homo sapiens, UniProt P21554); test: Cerep HTRF cAMP inhibition assay, hCB1 CHO-K1 cells; format: cell-based
T1 sequence (P21554 whole entry): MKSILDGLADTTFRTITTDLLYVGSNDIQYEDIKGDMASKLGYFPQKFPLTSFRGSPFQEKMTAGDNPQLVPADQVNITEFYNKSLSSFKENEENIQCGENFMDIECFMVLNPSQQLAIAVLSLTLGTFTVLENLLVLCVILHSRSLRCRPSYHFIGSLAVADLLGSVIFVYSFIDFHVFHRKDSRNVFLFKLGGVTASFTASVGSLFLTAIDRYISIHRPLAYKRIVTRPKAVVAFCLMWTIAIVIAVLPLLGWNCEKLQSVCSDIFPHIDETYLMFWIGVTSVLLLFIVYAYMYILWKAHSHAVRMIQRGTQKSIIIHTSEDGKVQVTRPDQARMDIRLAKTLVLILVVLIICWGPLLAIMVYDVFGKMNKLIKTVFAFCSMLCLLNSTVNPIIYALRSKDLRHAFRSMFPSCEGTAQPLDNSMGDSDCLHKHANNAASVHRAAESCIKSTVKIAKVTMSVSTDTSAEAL
Experimental: The hCB1 CHO-K1 cells are suspended in HBSS buffer (Invitrogen) complemented with 20 mM HEPES (pH 7.4), then distributed in microplates at a density of 5.103 cells/well in the presence of either of the following: HBSS (basal control), the reference agonist at 30 nM (stimulated control) or the test compounds. […] Following 30 min incubation at 37°C, the cells are lysed, and the fluorescence acceptor (D2-labeled cAMP) and fluorescence donor (anti-cAMP antibody labeled with europium cryptate) are added. […] Each measurement was done in triplicate.

hCB1 [4] = target: T1, hCB1; test: GloSensor cAMP accumulation assay; format: cell-based; design: host or cells: HEK293 (HEK293SL clone), transient; conditions: for Emax: read-out: hCB1 Glosensor cAMP Emax [95% CI]
Experimental: The results were analysed using GraphPad Prism 9.1. Each experiment was performed in triplicate and functional IC50 values were determined from the mean of three independent experiments.

hCB1 [5] = target: T1, hCB1; test: DiscoverX PathHunter β-arrestin-2 recruitment assay; format: cell-based
Experimental: PathHunter cell lines (CHO-K1 lineage expressing hCB1) were expanded from freezer stocks according to standard procedures. Cells were seeded in a total volume of 20 μL into white walled, 384-well microplates and incubated at 37°C for the appropriate time prior to testing. For agonist determination, cells were incubated with sample to induce response. Intermediate dilution of sample stocks was performed to generate 5X sample in assay buffer. 5 μL of 5X sample was added to cells and incubated at 37°C or room temperature for 90 to 180 minutes. Vehicle concentration was 1%. […] Microplates were read following signal generation with a PerkinElmer EnvisionTM instrument for chemiluminescent signal detection. Compound activity was analyzed using CBIS data analysis suite (ChemInnovation, CA).
The data were analyzed in GraphPad Prism 9.1 using “dose–response-stimulation log(agonist) versus response (four parameters)” and data were presented as EC50 or pEC50 ± CIs of one independent experiment in duplicate.

hCB2 [6] = target: T2, hCB2 (Homo sapiens, UniProt P34972); test: Cerep cAMP assay; format: cell-based
T2 sequence (P34972 whole entry): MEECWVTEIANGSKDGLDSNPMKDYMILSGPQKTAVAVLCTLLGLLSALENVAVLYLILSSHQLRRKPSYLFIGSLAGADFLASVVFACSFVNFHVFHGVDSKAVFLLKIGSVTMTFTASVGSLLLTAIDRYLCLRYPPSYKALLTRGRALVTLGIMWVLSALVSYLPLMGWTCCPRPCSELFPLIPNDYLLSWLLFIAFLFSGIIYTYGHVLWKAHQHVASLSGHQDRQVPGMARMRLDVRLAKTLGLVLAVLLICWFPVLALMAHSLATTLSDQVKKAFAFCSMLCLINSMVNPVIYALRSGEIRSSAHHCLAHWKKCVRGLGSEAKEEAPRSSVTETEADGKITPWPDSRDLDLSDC

C56BL/6 mice [7] = test: Mechanical thresholds (von Frey), SNI model of neuropathic pain and naive mice; format: in vivo, mouse
Experimental: as §1
Under isoflurane anesthesia, two of the three branches of the sciatic nerve were ligated and transected distally, leaving the sural nerve intact. Behavior was tested 7 to 14 days after injury.

hCB2 [8] = target: T2, hCB2; test: Radioligand competition binding with [3H]-CP-55,940, HEK293 cells stably expressing human CB2R; design: expressed in transfected cells; conditions: Fig. S8, read-out: hCB2 pKi (converted)
Experimental: The binding affinities of the compounds were obtained by competition binding using membrane preparations from rat brain (source of CB1) or HEK293 cells stably expressing human CB2R receptors and [^3H]-CP-55,940 as the radioligand, as described. The results were analyzed using nonlinear regression to determine the IC50 and Ki values for each ligand (Prism by GraphPad Software, Inc., San Diego, CA). The Ki values are expressed as the mean of two to three experiments each performed in triplicate.

Compound: CCCCCCC(C)(C)c1ccc([C@@H]2C[C@H](O)CC[C@H]2CCCO)c(O)c1 [CP-55,940, reference compound]
- Cmax brain [1]: 19.2 ng/g
- plasma Cmax increase compared to ‘4042 [1]: ~10 fold
- half-life ([1]; male, CD-1, mouse, ip): 2.12 h

Compound: COC(=O)C(C)(NC(=O)c1cc(C)n(-c2cccc(C(F)(F)F)c2)n1)c1cccs1 (stereo not shown) [‘4042]
- effect on paw withdrawal latency after CFA (C56BL/6 mice [2]): analgesic
- EC50 (hCB1 [3]): 0.008 nM
- Emax (hCB1 [3]; CHO-K1, read-out: hCB1 Cerep cAMP Emax [95% CI]): 96%
- EC50 (hCB1 [4]): 0.0398 nM
- Emax (hCB1 [4]): 91%
- EC50 (hCB1 [5]; hCB1 DiscoverX ß-arrestin recruitment EC50 [95% CI]): 2.3 nM
- EC50 (hCB1 [5]; hCB1 DiscoverX ß-arrestin recruitment pEC50 [95% CI]): 2 nM
- Emax (hCB1 [5]; read-out: hCB1 DiscoverX ß-arrestin recruitment Emax [95% CI]): 71%
- EC50 (hCB2 [6]): 0.0112 nM
- Emax (hCB2 [6]; read-out: hCB2 Cerep cAMP Emax [95% CI]): 72%
- Cmax brain [1]: 16.8 ng/g
- compartments in which compound was found [1]: appreciably in brain and plasma, but not CSF compartments
- AUC(0-inf) ([1]; male, CD-1, mouse, brain, ip, read-out: AUC0→inf brain tissue (converted)): 53 ng·h/mL
- half-life ([1]; male, CD-1, mouse, ip): 1.9 h
- Cmax ([1]; male, CD-1, mouse, plasma, ip): 5.14 ng/mL and 12 nM
- AUC(0-inf) ([1]; male, CD-1, mouse, plasma, ip, read-out: AUC0→inf plasma (converted)): 22.5 ng·h/mL
- effect on SNI mechanical allodynia (C56BL/6 mice [7]; 0.2 mg/kg i.p.): did not counter the mechanical allodynia
- effect on mechanical thresholds of naïve (non-SNI) animals (C56BL/6 mice [7]; 0.2 mg/kg i.p.): did not alter the mechanical thresholds
- effect on SNI mechanical allodynia (C56BL/6 mice [7]; intrathecal, up to 100 μg/kg): modest anti-allodynic effect
- Ki (hCB2 [8]): 2.51 nM

Compound: COC(=O)C(NC(=O)c1cc(C)n(-c2cccc(C(F)(F)F)c2)n1)c1cccs1 (stereo not shown) [‘60154]
- EC50 (hCB1 [4]): 25.1 nM
- Emax (hCB1 [4]): 82%
